Measured values as given in article PMC5108082, “Pharmacokinetics, toxicity, and cytochrome P450 modulatory activity of plumbagin” (BMC Pharmacology & Toxicology, 2016).
Entries after “also recorded” stand apart in the source; their conditions may differ.

Tested on: Wistar rats
Experiment: subacute toxicity test, daily oral dose for 28 days
Format: in vivo, rat
Method: Plumbagin was dissolved with 20 % Tween-80 to obtain the desired concentrations. Wistar rats were fasting 2 h before administration of a single oral dose of the plumbagin. Animals were divided into eight groups of six (3 males and 3 females for each group). For the acute toxicity test, rats in each group were fed with plumbagin at a single oral dose of 500, 250, or 150 mg/kg body weight (1 mL); control group received a single oral dose of 20 % Tween-80 (1 mL). For the subacute toxicity test, rats in each group were fed with plumbagin at a daily dose of 100, 50, or 25 mg/kg body weight (1 mL) for 28 days; control group received a daily oral dose of 20 % Tween-80 for 28 days (1 mL).
General behavioral changes of each rat was observed continuously for 1 h after each dose, intermittently every 4 h, and thereafter over a period of 24 h. […] At the end of the observation period, all animals were sacrificed under ether anesthesia (isoflurane) and vital organs (liver, lung, kidney, heart, and spleen) were removed from all animals for gross and histopathological examination. Blood sample was collected from each rat through cardiac puncture for analysis of plasma chemistry (heparin as an anticoagulant) and blood hematology (EDTA as an anticoagulant).

[1] = 25 mg/kg body weight daily for 28 days
[2] = 25 mg/kg daily oral for 28 days, median (interquartile range)

**Q.** With CC1=CC(=O)c2c(O)cccc2C1=O [plumbagin, 5-hydroxy-2-methyl-1,4-naphthoquinone] as the molecule, how does the “behavior, signs of toxicity, water and food consumption, body weight” value [1] read?
**A.** no abnormality in behavior, sign of toxicity, nor changes in water and food consumption, as well as body weights

**Q.** What about the “histopathological examination (liver, kidney, heart, spleen, lung)” value [1] of the same molecule?
**A.** no significant change in size and morphology

**Q.** And the survival [1]?
**A.** all rats survived

**Q.** What about the “changes in blood chemistry and hematology” value (25 mg/kg body weight daily for 28 days vs control) of the same molecule?
**A.** no significant changes in blood chemistry and hematology; also recorded: no significant change in hematological and blood biochemistry profiles

**Q.** What about the Blood morphology (25 mg/kg daily oral for 28 days) of the same molecule?
**A.** Normal

**Q.** What about the ALT [2] of the same molecule?
**A.** 30 (11) U/L

**Q.** And the AST [2]?
**A.** 101 (15) U/L

**Q.** What about the BUN [2] of the same molecule?
**A.** 22.0 (7.5) mg/dL

**Q.** And the Cholesterol [2]?
**A.** 73 (6) mg/dL

**Q.** And the Creatinine [2]?
**A.** 0.50 (0.00) mg/dL

**Q.** And the Eosinophils [2]?
**A.** 0.00 (1.00) ×10^3/μL

**Q.** And the Glucose [2]?
**A.** 230 mg/dL

**Q.** And the Hematocrit [2]?
**A.** 47.8 (2.6) %

**Q.** And the Hemoglobin [2]?
**A.** 14.4 (1.2) g/dL

**Q.** And the Lymphocytes [2]?
**A.** 7.59 (0.31) ×10^3/μL

**Q.** And the Monocytes [2]?
**A.** 0.00 (1.00) ×10^3/μL

**Q.** And the Neutrophils [2]?
**A.** 2.20 (0.63) ×10^3/μL

**Q.** What about the Platelets count [2] of the same molecule?
**A.** 885.50 (73.75) ×10^3/μL

**Q.** What about the RBC [2] of the same molecule?
**A.** 8.16 (0.72) ×10^6/μL

**Q.** What about the Triglyceride [2] of the same molecule?
**A.** 110 (9) mg/dL

**Q.** What about the WBC [2] of the same molecule?
**A.** 9.40 (0.65) ×10^3/μL

**Q.** What about the Glucose (25 mg/kg daily oral for 28 days, median (interquartile range), listed as Plumbagin) of the same molecule?
**A.** 230 (59) mg/dL

**Q.** What about the rats died (50 mg/kg body weight daily) of the same molecule?
**A.** two rats

**Q.** And the “rats with toxic signs and symptoms” value (50 mg/kg body weight daily)?
**A.** 2/6

**Q.** What about the time to death (50 mg/kg body weight daily) of the same molecule?
**A.** 12 to 16 days

**Q.** What about the rats died (100 mg/kg body weight daily) of the same molecule?
**A.** All rats

**Q.** And the “rats with toxic signs and symptoms” value (100 mg/kg body weight daily)?
**A.** 6/6

**Q.** And the time to death (100 mg/kg body weight daily)?
**A.** 6 to 10 days

**Q.** What about the gender-specific toxicity (all dose levels) of the same molecule?
**A.** No gender-specific toxicity was observed
